Structures can show the parent of a compound that is named as a salt. Active and inactive are the calls of the source. The calls are words filed in the database; no cut-off is given here.

Results on eight compounds are retold here after ChEMBL document CHEMBL6109099, “Design, synthesis and biological evaluation of novel hydroxamic acid-derived histone deacetylase inhibitors bearing a 2-oxoindoline scaffold as potential antitumor agents” (Bioorg Med Chem, 2025).

One series relates to SW-620. The series can be described thus: Cell cycle arrest in human SW620 cells assessed as accumulation of cells at S-phase at 5 uM measured after 24 hrs by propidium iodide staining based flow cytometry (reference value: 16.38 to 16.91%). Format: functional.
`O=C(CCCCCCC(=O)Nc1ccccc1)NO` [VORINOSTAT]: the Activity stood at 15.16%.
The same measure, in the same setting: for `O=C(CCCCCCN1C(=O)Cc2ccccc21)NO` the value was 15.26%.

The test system of a further series is HCT-116. The series can be described thus: Cytotoxicity against human HCT-116 cells assessed as reduction in cell viability by SRB assay. Format: functional, cell-based.
Consider `COc1cccc2c1C(=O)c1c(O)c3c(c(O)c1C2=O)C[C@@](O)(C(=O)CO)C[C@@H]3O[C@H]1C[C@H](N)[C@H](O)[C@H](C)O1` [DOXORUBICIN HYDROCHLORIDE], for which the IC50 was found to be 0.19 µM.
`O=C(NO)c1ccc(CN2C(=O)Cc3cc(Cl)ccc32)cc1`: the IC50 is 3.5 µM.
Regarding `O=C(NO)c1ccc(CN2C(=O)Cc3cc(F)ccc32)cc1`, the IC50 is 7.6 µM.
The same measure, in the same setting: then `O=C(NO)c1ccc(CN2C(=O)Cc3cc(Br)ccc32)cc1`, with 2.78 µM.
Same read-out and setting: then `O=C(/C=C/c1ccc(CN2C(=O)Cc3cc(Cl)ccc32)cc1)NO`, with 3.63 µM; and `O=C(CCCCCCN1C(=O)Cc2cc(Cl)ccc21)NO`, with 5.67 µM.
`O=C(CCCCCCN1C(=O)Cc2ccccc21)NO`: the IC50 was 1.68 µM.

In a further series the test system is SW-620. The series can be described thus: Induction of morphological changes in human SW620 cells assessed as cell shrinkage at 5 uM measured after 24 hrs. Format: functional, cell-based.
For `O=C(CCCCCCC(=O)Nc1ccccc1)NO` [VORINOSTAT], the result was Active.
Regarding `O=C(CCCCCCN1C(=O)Cc2ccccc21)NO`, the outcome was Active.

The subject of a further series is SW-620. Briefly: Induction of morphological changes in human SW620 cells assessed as tighter organelle packing at 5 uM measured after 24 hrs. It is filed as functional, cell-based.
For the compound `O=C(CCCCCCC(=O)Nc1ccccc1)NO` [VORINOSTAT], the outcome was Active.
In the case of `O=C(CCCCCCN1C(=O)Cc2ccccc21)NO`, the result was Active.

In another series the test system is SW-620. The series can be described thus: Induction of morphological changes in human SW620 cells assessed as cell rounding at 5 uM measured after 24 hrs. Format: functional, cell-based.
For the compound `O=C(CCCCCCC(=O)Nc1ccccc1)NO` [VORINOSTAT], the result was Active.
As for `O=C(CCCCCCN1C(=O)Cc2ccccc21)NO`, the result was Active.

A further series deals with SW-620. The series can be described thus: Induction of apoptosis in human SW620 cells assessed as late apoptotic cells at 5 uM measured after 24 hrs by Annexin V-APC/propidium iodide staining based flow cytometry (reference value: 3.47 to 4.55%). Format: functional.
Regarding `O=C(CCCCCCC(=O)Nc1ccccc1)NO` [VORINOSTAT], the Activity was found to be 24.3%.
Turning to `O=C(CCCCCCN1C(=O)Cc2ccccc21)NO`, the Activity is given as 28.9%.

A further series relates to SW-620. Briefly: Induction of morphological changes in human SW620 cells assessed as cytoplasmic condensation at 5 uM measured after 24 hrs. Format: functional, cell-based.
`O=C(CCCCCCC(=O)Nc1ccccc1)NO` [VORINOSTAT]: the result was Active.
The same measure, in the same setting: then `O=C(CCCCCCN1C(=O)Cc2ccccc21)NO`, with “Active”.

In the next series the test system is SW-620. Briefly: Induction of morphological changes in human SW620 cells assessed as altered membrane permeability at 5 uM measured after 24 hrs. It is filed as functional, cell-based.
As for `O=C(CCCCCCC(=O)Nc1ccccc1)NO` [VORINOSTAT], the outcome was Active.
Same read-out and setting: then `O=C(CCCCCCN1C(=O)Cc2ccccc21)NO`, with “Active”.

The test system of another series is SW-620. The series can be described thus: Cell cycle arrest in human SW620 cells assessed as accumulation of cells at G2/M-phase at 5 uM measured after 24 hrs by propidium iodide staining based flow cytometry (reference value: 27.55 to 31.23%). Format: functional.
For `O=C(CCCCCCC(=O)Nc1ccccc1)NO` [VORINOSTAT], the Activity came out at 37.58%.
For `O=C(CCCCCCN1C(=O)Cc2ccccc21)NO`, the Activity was found to be 47.54%.

The next series has as its system SW-620. Briefly: Potency index, ratio of SAHA IC50 to test compound IC50 for cytotoxicity against human SW620 cells. It is filed as functional.
Take `O=C(CCCCCCN1C(=O)Cc2ccccc21)NO`: the “Ratio IC50” value is about 2.5.

Another series has as its system SW-620. The series can be described thus: Cell cycle arrest in human SW620 cells assessed as accumulation of cells at G0/G1-phase at 5 uM measured after 24 hrs by propidium iodide staining based flow cytometry (reference value: 52.39 to 55.88%). It is filed as functional.
On to `O=C(CCCCCCC(=O)Nc1ccccc1)NO` [VORINOSTAT], for which the Activity came to 41.58%.
Same read-out and setting: for `O=C(CCCCCCN1C(=O)Cc2ccccc21)NO` the value was 32.88%.

The next series concerns the target Histone deacetylase. The series can be described thus: Inhibition of HDAC in human HeLa cells nuclear extract. Format: subcellular, Nucleus.
Turning to `O=C(NO)c1ccc(CN2C(=O)Cc3cc(Cl)ccc32)cc1`, the IC50 worked out at 0.491 µM.
The same measure, in the same setting: for `O=C(NO)c1ccc(CN2C(=O)Cc3cc(F)ccc32)cc1` the value was 0.477 µM.
`O=C(NO)c1ccc(CN2C(=O)Cc3cc(Br)ccc32)cc1` came in with an IC50 of 2.739 µM.
On the same count and under the same terms, then `O=C(/C=C/c1ccc(CN2C(=O)Cc3cc(Cl)ccc32)cc1)NO`, with 0.737 µM.
On the same count and under the same terms, then `O=C(CCCCCCN1C(=O)Cc2cc(Cl)ccc21)NO`, with 0.007 µM; and `O=C(CCCCCCN1C(=O)Cc2ccccc21)NO`, with 0.015 µM.

In another series the test system is SW-620. The series can be described thus: Induction of morphological changes in human SW620 cells assessed as cell clumping at 5 uM measured after 24 hrs. Format: functional, cell-based.
Take `O=C(CCCCCCC(=O)Nc1ccccc1)NO` [VORINOSTAT]: the result was Active.
As to `O=C(CCCCCCN1C(=O)Cc2ccccc21)NO`, the outcome was Active.

The test system of a further series is SW-620. Briefly: Induction of morphological changes in human SW620 cells assessed as reduction in cell size at 5 uM measured after 24 hrs. Format: functional, cell-based.
For the compound `O=C(CCCCCCC(=O)Nc1ccccc1)NO` [VORINOSTAT], the result was Active.
Still for that read-out and setting: then `O=C(CCCCCCN1C(=O)Cc2ccccc21)NO`, with “Active”.

The subject of a further series is SW-620. The series can be described thus: Induction of morphological changes in human SW620 cells assessed as increase in granularity at 5 uM measured after 24 hrs. It is filed as functional, cell-based.
Consider `O=C(CCCCCCC(=O)Nc1ccccc1)NO` [VORINOSTAT], for which the result was Active.
On the same count and under the same terms, then `O=C(CCCCCCN1C(=O)Cc2ccccc21)NO`, with “Active”.

The subject of the next series is SW-620. Briefly: Induction of apoptosis in human SW620 cells assessed as necrotic cells at 5 uM measured after 24 hrs by Annexin V-APC/propidium iodide staining based flow cytometry (reference value: 0.2 to 0.42%). Format: functional.
`O=C(CCCCCCC(=O)Nc1ccccc1)NO` [VORINOSTAT]: the Activity stood at 1.53%.
The same measure, in the same setting: then `O=C(CCCCCCN1C(=O)Cc2ccccc21)NO`, with 1.85%.

In another series the test system is SW-620. Briefly: Induction of morphological changes in human SW620 cells assessed as altered membrane fluidity at 5 uM measured after 24 hrs. Format: functional, cell-based.
On to `O=C(CCCCCCC(=O)Nc1ccccc1)NO` [VORINOSTAT], for which the result was Active.
The same measure, in the same setting: then `O=C(CCCCCCN1C(=O)Cc2ccccc21)NO`, with “Active”.

The test system of a further series is SW-620. Briefly: Induction of apoptosis in human SW620 cells assessed as early apoptotic cells at 5 uM measured after 24 hrs by Annexin V-APC/propidium iodide staining based flow cytometry (reference value: 7.13 to 9.13%). Format: functional.
For `O=C(CCCCCCC(=O)Nc1ccccc1)NO` [VORINOSTAT], the Activity amounted to 26.3%.
The same measure, in the same setting: for `O=C(CCCCCCN1C(=O)Cc2ccccc21)NO` the value was 23.4%.

The subject of another series is SW-620. The series can be described thus: Induction of morphological changes in human SW620 cells assessed as water extrusion at 5 uM measured after 24 hrs. It is filed as functional, cell-based.
On to `O=C(CCCCCCC(=O)Nc1ccccc1)NO` [VORINOSTAT], for which the outcome was Active.
On to `O=C(CCCCCCN1C(=O)Cc2ccccc21)NO`, for which the outcome was Active.

The next series relates to SW-620. Briefly: Cytotoxicity against human SW620 cells assessed as reduction in cell viability by SRB assay. It is filed as functional, cell-based.
`COc1cccc2c1C(=O)c1c(O)c3c(c(O)c1C2=O)C[C@@](O)(C(=O)CO)C[C@@H]3O[C@H]1C[C@H](N)[C@H](O)[C@H](C)O1` [DOXORUBICIN HYDROCHLORIDE]: the IC50 was determined as 0.59 µM.
Regarding `O=C(NO)c1ccc(CN2C(=O)Cc3cc(Cl)ccc32)cc1`, the IC50 turned out to be 6.26 µM.
Still for that read-out and setting: for `O=C(NO)c1ccc(CN2C(=O)Cc3cc(F)ccc32)cc1` the value was 10.6 µM; for `O=C(NO)c1ccc(CN2C(=O)Cc3cc(Br)ccc32)cc1`, 5.51 µM.
Same read-out and setting: for `O=C(/C=C/c1ccc(CN2C(=O)Cc3cc(Cl)ccc32)cc1)NO` the value was 7.08 µM.
On the same count and under the same terms, for `O=C(CCCCCCN1C(=O)Cc2cc(Cl)ccc21)NO` the value was 4.72 µM; for `O=C(CCCCCCN1C(=O)Cc2ccccc21)NO`, 1.81 µM.

System in a further series: not listed separately
The series can be described thus: Cytotoxicity against human MRC5 cells assessed as reduction in cell viability by SRB assay.
Consider `COc1cccc2c1C(=O)c1c(O)c3c(c(O)c1C2=O)C[C@@](O)(C(=O)CO)C[C@@H]3O[C@H]1C[C@H](N)[C@H](O)[C@H](C)O1` [DOXORUBICIN HYDROCHLORIDE], for which the IC50 came to 3.93 µM.
In the case of `O=C(NO)c1ccc(CN2C(=O)Cc3cc(Cl)ccc32)cc1`, the IC50 was over 100 µM.
The same measure, in the same setting: then `O=C(NO)c1ccc(CN2C(=O)Cc3cc(F)ccc32)cc1`, with over 100 µM; and `O=C(NO)c1ccc(CN2C(=O)Cc3cc(Br)ccc32)cc1`, with 21.4 µM; and `O=C(/C=C/c1ccc(CN2C(=O)Cc3cc(Cl)ccc32)cc1)NO`, with 66.4 µM.
On the same count and under the same terms, then `O=C(CCCCCCN1C(=O)Cc2cc(Cl)ccc21)NO`, with 23.1 µM.
The same measure, in the same setting: then `O=C(CCCCCCN1C(=O)Cc2ccccc21)NO`, with 17.6 µM.
